According to the NIST ThermoML archive (doi:10.1016/j.jct.2013.09.024):

Assay: xn = mol fraction of the nth substance listed
Conditions: Liquid, Vibrating tube method

CC1(C)C(=O)[C@]2(C)CC[C@H]1C2 [(-)-fenchone] + CCO
mass density [kg/m3]
Conditions | 283.15 K | 298.15 K | 313.15 K | 328.15 K
101 kPa, x1 = 0.0481 | 817.48 | 804.6 | 791.46 | 777.95
101 kPa, x1 = 0.0985 | 834.96 | 822.02 | 808.84 | 795.29
101 kPa, x1 = 0.2002 | 862.89 | 849.9 | 836.65 | 823.07
101 kPa, x1 = 0.3002 | 883.74 | 870.72 | 857.52 | 844.02
101 kPa, x1 = 0.4031 | 900.59 | 887.59 | 874.42 | 861.01
101 kPa, x1 = 0.5012 | 913.56 | 900.59 | 887.46 | 874.13
101 kPa, x1 = 0.5976 | 924.09 | 911.15 | 898.09 | 884.87
101 kPa, x1 = 0.697 | 933.16 | 920.28 | 907.3 | 894.19
101 kPa, x1 = 0.7897 | 940.31 | 927.48 | 914.58 | 901.6
101 kPa, x1 = 0.899 | 947.57 | 934.83 | 922.06 | 909.23
101 kPa, x1 = 0.9486 | 950.46 | 937.77 | 925.06 | 912.33
101 kPa, x1 = 1 | 953.27 | 940.67 | 928.04 | 915.39
20000 kPa, x1 = 0.051 | 833.5 | 822 | 810.1 | 798
20000 kPa, x1 = 0.0992 | 849.7 | 838 | 826.1 | 813.9
20000 kPa, x1 = 0.199 | 876.6 | 864.9 | 852.8 | 840.6
20000 kPa, x1 = 0.301 | 897.5 | 885.7 | 873.6 | 861.4
20000 kPa, x1 = 0.3968 | 913 | 901.1 | 889.1 | 876.8
20000 kPa, x1 = 0.4976 | 926.2 | 914.3 | 902.4 | 890.1
20000 kPa, x1 = 0.5924 | 936.5 | 924.6 | 912.6 | 900.5
20000 kPa, x1 = 0.6956 | 945.8 | 934 | 922 | 910.1
20000 kPa, x1 = 0.7942 | 953.4 | 941.6 | 929.7 | 917.8
20000 kPa, x1 = 0.8929 | 959.7 | 948.1 | 936.3 | 924.4
20000 kPa, x1 = 0.9454 | 962.8 | 951.2 | 939.4 | 927.7
20000 kPa, x1 = 1 | 965.6 | 954 | 942.3 | 930.8
25000 kPa, x1 = 0.051 | 837 | 825.6 | 814 | 802.1
25000 kPa, x1 = 0.0992 | 853.1 | 841.6 | 829.9 | 818
25000 kPa, x1 = 0.199 | 879.9 | 868.3 | 856.5 | 844.6
25000 kPa, x1 = 0.301 | 900.6 | 889.1 | 877.2 | 865.3
25000 kPa, x1 = 0.3968 | 916.1 | 904.4 | 892.6 | 880.6
25000 kPa, x1 = 0.4976 | 929.2 | 917.6 | 905.9 | 893.7
25000 kPa, x1 = 0.5924 | 939.4 | 927.8 | 916 | 904.1
25000 kPa, x1 = 0.6956 | 948.7 | 937.1 | 925.3 | 913.7
25000 kPa, x1 = 0.7942 | 956.3 | 944.7 | 933 | 921.3
25000 kPa, x1 = 0.8929 | 962.6 | 951.1 | 939.6 | 927.9
25000 kPa, x1 = 0.9454 | 965.7 | 954.2 | 942.7 | 931.2
25000 kPa, x1 = 1 | 968.5 | 957.1 | 945.6 | 934.2
30000 kPa, x1 = 0.051 | 840.3 | 829.1 | 817.7 | 806.1
30000 kPa, x1 = 0.0992 | 856.3 | 845 | 833.6 | 821.9
30000 kPa, x1 = 0.199 | 883 | 871.7 | 860 | 848.3
30000 kPa, x1 = 0.301 | 903.7 | 892.3 | 880.6 | 869
30000 kPa, x1 = 0.3968 | 919.1 | 907.6 | 895.9 | 884.2
30000 kPa, x1 = 0.4976 | 932.2 | 920.7 | 909.2 | 897.3
30000 kPa, x1 = 0.5924 | 942.3 | 930.9 | 919.2 | 907.7
30000 kPa, x1 = 0.6956 | 951.6 | 940.2 | 928.5 | 917.2
30000 kPa, x1 = 0.7942 | 959.1 | 947.7 | 936.1 | 924.8
30000 kPa, x1 = 0.8929 | 965.5 | 954.1 | 942.7 | 931.4
30000 kPa, x1 = 0.9454 | 968.5 | 957.2 | 945.8 | 934.5
30000 kPa, x1 = 1 | 971.3 | 960 | 948.7 | 937.6
35000 kPa, x1 = 0.051 | 843.4 | 832.5 | 821.3 | 810
35000 kPa, x1 = 0.0992 | 859.4 | 848.3 | 837.1 | 825.7
35000 kPa, x1 = 0.199 | 886 | 874.8 | 863.5 | 852
35000 kPa, x1 = 0.301 | 906.6 | 895.4 | 883.9 | 872.5
35000 kPa, x1 = 0.3968 | 922 | 910.6 | 899.2 | 887.7
35000 kPa, x1 = 0.4976 | 935 | 923.7 | 912.4 | 900.8
35000 kPa, x1 = 0.5924 | 945.2 | 933.9 | 922.5 | 911.1
35000 kPa, x1 = 0.6956 | 954.4 | 943.2 | 931.7 | 920.6
35000 kPa, x1 = 0.7942 | 961.9 | 950.6 | 939.3 | 928.1
35000 kPa, x1 = 0.8929 | 968.2 | 957 | 945.8 | 934.7
35000 kPa, x1 = 0.9454 | 971.2 | 960.1 | 948.9 | 937.8
35000 kPa, x1 = 1 | 974 | 962.9 | 951.8 | 940.9
40000 kPa, x1 = 0.051 | 846.5 | 835.7 | 824.8 | 813.7
40000 kPa, x1 = 0.0992 | 862.5 | 851.5 | 840.5 | 829.3
40000 kPa, x1 = 0.199 | 889 | 877.9 | 866.8 | 855.5
40000 kPa, x1 = 0.301 | 909.5 | 898.4 | 887.1 | 876
40000 kPa, x1 = 0.3968 | 924.8 | 913.6 | 902.4 | 891.1
40000 kPa, x1 = 0.4976 | 937.8 | 926.7 | 915.5 | 904.2
40000 kPa, x1 = 0.5924 | 947.9 | 936.7 | 925.5 | 914.4
40000 kPa, x1 = 0.6956 | 957.1 | 946 | 934.7 | 923.8
40000 kPa, x1 = 0.7942 | 964.6 | 953.5 | 942.3 | 931.4
40000 kPa, x1 = 0.8929 | 970.9 | 959.8 | 948.8 | 937.8
40000 kPa, x1 = 0.9454 | 973.8 | 962.9 | 951.9 | 941
40000 kPa, x1 = 1 | 976.6 | 965.7 | 954.7 | 944
